Test results from paper PMC2970651 (Bioorganic & medicinal chemistry, 2010).
Read-outs that look alike come from different tables or passages of the source.

Assays:
[1] = system: maximal electroshock seizure (generalized tonic-clonic seizures); assay: Maximal Electroshock Seizure; type: in vivo, mice; conditions: i.p.; for protection in the MES test in mice at 100 mg/kg (in words) / MES protection, animals protected/animals tested at 0.5 h: mice; for MES protection, animals protected/animals tested at 0.5 h: 100 mg/kg (stated for 19 and 20)
[2] = target: T1, human Nav1.2 (Homo sapiens, UniProt Q99250); type: cell-based
[3] = system: mice; assay: Acute toxicity, minimal motor impairment; type: in vivo; conditions: i.p.
[4] = system: maximal electroshock seizure (generalized tonic-clonic seizures); assay: MES test, oral administration to rats; type: in vivo; conditions: 30 mg/kg
[5] = target: T1, human Nav1.2; conditions: cited from earlier work

T1 sequence (Q99250 whole entry): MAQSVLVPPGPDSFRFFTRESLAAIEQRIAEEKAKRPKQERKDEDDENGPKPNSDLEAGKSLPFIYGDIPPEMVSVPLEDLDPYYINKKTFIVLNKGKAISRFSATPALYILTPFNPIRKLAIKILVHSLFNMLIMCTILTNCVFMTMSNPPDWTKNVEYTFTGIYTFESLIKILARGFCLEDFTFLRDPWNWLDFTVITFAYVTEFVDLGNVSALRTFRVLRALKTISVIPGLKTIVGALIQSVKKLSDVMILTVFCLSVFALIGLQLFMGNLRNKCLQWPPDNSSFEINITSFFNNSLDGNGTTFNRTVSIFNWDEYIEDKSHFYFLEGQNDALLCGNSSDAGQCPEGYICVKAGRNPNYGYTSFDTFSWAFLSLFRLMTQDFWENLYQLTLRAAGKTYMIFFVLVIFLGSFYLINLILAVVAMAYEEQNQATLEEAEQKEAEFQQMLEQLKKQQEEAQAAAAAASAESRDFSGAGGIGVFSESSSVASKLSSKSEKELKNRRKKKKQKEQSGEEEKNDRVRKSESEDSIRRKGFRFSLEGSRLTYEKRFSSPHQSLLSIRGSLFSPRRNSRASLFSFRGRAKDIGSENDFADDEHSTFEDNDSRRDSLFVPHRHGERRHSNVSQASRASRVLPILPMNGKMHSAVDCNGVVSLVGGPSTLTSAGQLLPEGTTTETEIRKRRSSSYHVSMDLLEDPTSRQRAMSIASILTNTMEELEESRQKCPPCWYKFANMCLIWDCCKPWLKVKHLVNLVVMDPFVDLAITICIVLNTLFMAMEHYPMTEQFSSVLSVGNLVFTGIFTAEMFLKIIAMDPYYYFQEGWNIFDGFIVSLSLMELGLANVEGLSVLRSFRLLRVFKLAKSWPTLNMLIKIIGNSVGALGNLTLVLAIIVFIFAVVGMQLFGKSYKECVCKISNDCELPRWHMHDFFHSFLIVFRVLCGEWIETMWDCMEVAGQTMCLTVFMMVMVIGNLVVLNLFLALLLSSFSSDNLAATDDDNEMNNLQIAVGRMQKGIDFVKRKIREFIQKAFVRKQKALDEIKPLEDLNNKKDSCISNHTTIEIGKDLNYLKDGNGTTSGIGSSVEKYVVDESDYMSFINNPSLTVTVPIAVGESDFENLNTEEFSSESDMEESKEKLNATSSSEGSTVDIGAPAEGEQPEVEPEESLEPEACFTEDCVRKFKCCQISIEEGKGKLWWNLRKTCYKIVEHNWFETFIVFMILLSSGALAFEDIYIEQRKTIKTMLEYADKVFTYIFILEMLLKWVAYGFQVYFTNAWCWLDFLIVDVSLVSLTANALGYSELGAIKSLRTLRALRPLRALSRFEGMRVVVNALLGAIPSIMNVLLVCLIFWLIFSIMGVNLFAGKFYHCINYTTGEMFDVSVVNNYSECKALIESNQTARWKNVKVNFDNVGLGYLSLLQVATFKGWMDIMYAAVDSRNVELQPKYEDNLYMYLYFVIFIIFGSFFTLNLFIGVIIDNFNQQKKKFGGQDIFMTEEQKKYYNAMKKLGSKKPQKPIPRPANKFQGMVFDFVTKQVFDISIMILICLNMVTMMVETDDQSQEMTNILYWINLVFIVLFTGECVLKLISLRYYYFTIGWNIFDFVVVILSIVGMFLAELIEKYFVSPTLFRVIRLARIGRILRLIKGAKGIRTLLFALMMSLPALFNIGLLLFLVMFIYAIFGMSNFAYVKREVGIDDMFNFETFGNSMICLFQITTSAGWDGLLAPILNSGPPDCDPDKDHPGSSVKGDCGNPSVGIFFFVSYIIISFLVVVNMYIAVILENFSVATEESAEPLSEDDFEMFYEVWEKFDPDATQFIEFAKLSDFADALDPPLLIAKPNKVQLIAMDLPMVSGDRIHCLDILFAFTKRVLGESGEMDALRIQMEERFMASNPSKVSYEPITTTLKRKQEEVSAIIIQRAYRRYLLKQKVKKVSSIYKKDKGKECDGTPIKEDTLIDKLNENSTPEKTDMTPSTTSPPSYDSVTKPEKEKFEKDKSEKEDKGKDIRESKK

Clc1cccc(-c2nc(-c3ccccc3)c[nH]2)c1 [Compound 12]
protection in the MES test in mice at 100 mg/kg (in words) [1]: Some protection

COc1ccc(-c2nc(-c3ccccc3)c[nH]2)cc1 [Compound 13]
action on hNaV1.2 current at 10 μM [2]: 30.1%

O=[N+]([O-])c1ccc(-c2nc(-c3ccccc3)c[nH]2)cc1 [Compound 15]
protection in the MES test in mice at 100 mg/kg (in words) [1]: Some protection

O=[N+]([O-])c1cccc(-c2nc(-c3ccccc3)c[nH]2)c1 [Compound 16]
MES protection, animals protected/animals tested at 0.5 h [1]: 2/3

FC(F)(F)c1ccc(-c2nc(-c3ccccc3)c[nH]2)cc1 [Compound 17]
MES protection, animals protected/animals tested at 0.25 h ([1]; 0.25 h, text says rats, Supplementary Data Table 1): 2/3 | dose up to which no toxicity was observed [3]: 500 mg/kg | action on hNaV1.2 current at 10 μM [2]: 22.7% | fold greater potency for hNav1.2 than phenytoin ([2]; ratio of IC50 values): 4 fold

Clc1ccc(-c2c[nH]c(-c3ccccc3)n2)cc1 [Compound 19]
MES protection, animals protected/animals tested at 0.5 h [1]: 3/3 | ability to prevent seizure spread in the MES test after oral administration (in words) [4]: not able to prevent seizure spread

Clc1cccc(-c2c[nH]c(-c3ccccc3)n2)c1 [Compound 20]
MES protection, animals protected/animals tested at 0.5 h [1]: 3/3 | dose up to which no toxicity was observed [3]: 500 mg/kg | action on hNaV1.2 current at 10 μM [2]: 16.8%

COc1ccc(-c2c[nH]c(-c3ccccc3)n2)cc1 [Compound 21]
ability to prevent seizure spread in the MES test after oral administration (in words) [4]: not able to prevent seizure spread

COc1cccc(-c2c[nH]c(-c3ccccc3)n2)c1 [Compound 22]
ability to prevent seizure spread in the MES test after oral administration (in words) [4]: not able to prevent seizure spread

O=[N+]([O-])c1ccc(-c2c[nH]c(-c3ccccc3)n2)cc1 [Compound 23]
protection in the MES test in mice at 100 mg/kg (in words) [1]: Some protection

O=[N+]([O-])c1cccc(-c2c[nH]c(-c3ccccc3)n2)c1 [Compound 24]
MES protection, animals protected/animals tested at 0.5 h [1]: 2/3 | ability to prevent seizure spread in the MES test after oral administration (in words) [4]: not able to prevent seizure spread

FC(F)(F)c1ccc(-c2c[nH]c(-c3ccccc3)n2)cc1 [Compound 25]
protection in the MES test in mice at 100 mg/kg (in words) [1]: Some protection

FC(F)(F)c1cccc(-c2c[nH]c(-c3ccccc3)n2)c1 [Compound 26]
protection in the MES test in mice at 100 mg/kg (in words) [1]: Some protection

FC(F)(F)c1cccc(-c2c[nH]c(-c3cccc(C(F)(F)F)c3)n2)c1 [Compound 29]
protection in the MES test in mice at 100 mg/kg (in words) [1]: Some protection

O=C1NC(=O)C(c2ccccc2)(c2ccccc2)N1 [Phenytoin]
action on hNaV1.2 current at 10 μM [5]: 10.6%
